ChEMBL document CHEMBL4732256, “Synthesis and biological activities of novel mitochondria-targeted artemisinin ester derivatives” (Bioorg Med Chem Lett, 2021)
The source made the active and inactive calls. The rule behind the calls is not given here.

Assays:
SMMC-7721 = assay: Cytotoxicity against human SMMC-7721 cells assessed as reduction in cell viability by MTT assay; assay type: functional, cell-based
HepG2 = assay: Cytotoxicity against human HepG2 cells assessed as reduction in cell viability by MTT assay; assay type: functional, cell-based
OVCAR-3 [1] = assay: Cytotoxicity against human OVCAR3 cells assessed as reduction in cell viability by MTT assay; assay type: functional, cell-based
A549 [2] = assay: Cytotoxicity against human A549 cells assessed as reduction in cell viability by MTT assay; assay type: functional, cell-based
J82 = assay: Cytotoxicity in human J82 cells assessed as reduction in cell viability by MTT assay; assay type: functional, cell-based
HUVEC = assay: Cytotoxicity against HUVEC assessed as reduction in cell viability by MTT assay; assay type: cell-based; conditions: Homo sapiens
OVCAR-3 [3] = assay: Induction of apoptosis in human OVCAR-3 cells assessed as early apoptotic cell at 10 uM after 48 hrs by Annexin V-FITC/PI staining based flow cytometry (reference value: 1.58%); assay type: functional
OVCAR-3 [4] = assay: Induction of apoptosis in human OVCAR-3 cells assessed as late apoptotic cell at 10 uM after 48 hrs by Annexin V-FITC/PI staining based flow cytometry (reference value: 0.118%); assay type: functional
OVCAR-3 [5] = assay: Induction of apoptosis in human OVCAR-3 cells assessed as necrotic cell at 10 uM after 48 hrs by Annexin V-FITC/PI staining based flow cytometry (reference value: 0.00%); assay type: functional
OVCAR-3 [6] = assay: Induction of apoptosis in human OVCAR-3 cells assessed as viable cell at 10 uM after 48 hrs by Annexin V-FITC/PI staining based flow cytometry (reference value: 98.3%); assay type: functional
OVCAR-3 [7] = assay: Induction of apoptosis in human OVCAR-3 cells assessed as viable cell at 10 uM after 48 hrs in presence of 4C-TPPBr by Annexin V-FITC/PI staining based flow cytometry (reference value: 98.3%); assay type: functional
OVCAR-3 [8] = assay: Induction of apoptosis in human OVCAR-3 cells assessed as necrotic cell at 10 uM after 48 hrsin presence of 4C-TPPBr by Annexin V-FITC/PI staining based flow cytometry (reference value: 0.00%); assay type: functional; conditions: time 48 hrs
OVCAR-3 [9] = assay: Induction of apoptosis in human OVCAR-3 cells assessed as late apoptotic cell at 10 uM after 48 hrs in presence of 4C-TPPBr by Annexin V-FITC/PI staining based flow cytometry (reference value: 0.118%); assay type: functional
OVCAR-3 [10] = assay: Induction of apoptosis in human OVCAR-3 cells assessed as early apoptotic cell at 10 uM after 48 hrs in presence of 4C-TPPBr by Annexin V-FITC/PI staining based flow cytometry (reference value: 1.58%); assay type: functional
A549 [11] = assay: Potency index, ratio of cisplatin IC50 to test compound IC50 for human A549 cells; assay type: functional
[12] = Selectivity index ratio of IC50 for HUVEC to IC50 for human OVCAR3 cells
OVCAR-3 [13] = assay: Induction of apoptosis in human OVCAR-3 assessed as nuclear blebbing measured after 48 hrs by Hoechst 33258 staining based fluorescence microscopic analysis; assay type: functional, cell-based; conditions: dose 3-10 µM
OVCAR-3 [14] = assay: Induction of apoptosis in human OVCAR-3 assessed as nuclear rounding measured after 48 hrs by Hoechst 33258 staining based fluorescence microscopic analysis; assay type: functional, cell-based; conditions: dose 3-10 µM
OVCAR-3 [15] = assay: Induction of mitochondrial membrane potential loss in human OVCAR-3 cells assessed as mitochondrial depolarization by measuring green fluorescence at 3 uM measured after 48 hrs by JCI staining based fluorescence microscopy (reference value: 3.3 %); assay type: functional
OVCAR-3 [16] = assay: Induction of mitochondrial membrane potential loss in human OVCAR-3 cells assessed as mitochondrial depolarization by measuring green fluorescence at 10 uM measured after 48 hrs by JCI staining based fluorescence microscopy (reference value: 3.3 %); assay type: functional
OVCAR-3 [17] = assay: Induction of mitochondrial membrane potential loss in human OVCAR-3 cells assessed as mitochondrial depolarization by measuring green fluorescence at 30 uM measured after 48 hrs by JCI staining based fluorescence microscopy (reference value: 3.3 %); assay type: functional
OVCAR-3 [18] = assay: Induction of heme-mediated cell death in human OVCAR-3 cells assessed as reduction in cell viability at 3 to 30 uM pretreated with delta-aminolevulinic acid followed by compound addition by Hoechst 33258 staining based assay; conditions: dose 3-30 µM
OVCAR-3 [19] = assay: Induction of heme-mediated cell death in human OVCAR-3 cells assessed as reduction in cell viability at 3 to 30 uM pretreated with succinyl-acetone followed by compound addition by Hoechst 33258 staining based assay; conditions: dose 3-30 µM
OVCAR-3 [20] = assay: Induction of apoptosis in human OVCAR-3 assessed as nuclear shrinkage measured after 48 hrs by Hoechst 33258 staining based fluorescence microscopic analysis; assay type: functional, cell-based; conditions: dose 3-10 µM
OVCAR-3 [21] = assay: Potency index, ratio of cisplatin IC50 to test compound IC50 for human OVCAR-3 cells; assay type: functional
OVCAR-3 [22] = assay: Induction of ROS generation in human OVCAR-3 cells measured after 48 hrs by DCFH-DA staining based fluorescence microscopy; assay type: functional, cell-based; conditions: dose 1-10 µM
OVCAR-3 [23] = assay: Induction of ROS generation in human OVCAR-3 cells at 1 to 10 uM measured after 48 hrs in presence of N-acetyl cysteine by DCFH-DA staining based fluorescence microscopy; assay type: functional, cell-based; conditions: dose 1-10 µM
OVCAR-3 [24] = assay: Cytotoxicity against human OVCAR-3 cells at 1 to 10 uM measured after 72 hrs in presence of N-acetyl cysteine by MTT assay; assay type: functional, cell-based; conditions: dose 1-10 µM

| SMILES | IC50 (SMMC-7721) [µM] | IC50 (HepG2) [µM] | IC50 (OVCAR-3 [1]) [µM] | IC50 (A549 [2]) [µM] | IC50 (J82) [µM] | IC50 (HUVEC) [µM] | Activity (OVCAR-3 [3]) [%] | Activity (OVCAR-3 [4]) [%] | Activity (OVCAR-3 [5]) [%] | Activity (OVCAR-3 [6]) [%] | further results |
| --- | --- | --- | --- | --- | --- | --- | --- | --- | --- | --- | --- |
| C[C@H]1[C@@H](O)O[C@@H]2O[C@@]3(C)CC[C@H]4[C@H](C)CC[C@@H]1[C@@]24OO3 [ARTENIMOL] | 61.4 | 73.6 | 87.2 | 27.8 | 146 | 180 | 3.61 | 1.97 | 0.062 | 94.4 | Activity (OVCAR-3 [7]): 95.7%; Activity (OVCAR-3 [8]): 0.01%; Activity (OVCAR-3 [9]): 1.56%; Activity (OVCAR-3 [10]): 2.74% |
| C[C@H]1[C@H](OC(=O)CCC(=O)OCCC[P+](c2ccccc2)(c2ccccc2)c2ccccc2)O[C@@H]2O[C@@]3(C)CC[C@H]4[C@H](C)CC[C@@H]1[C@@]24OO3 | 23.6 | 13 | 16.6 | 5.5 | 43.8 | 18.3 |  |  |  |  |  |
| C[C@H]1[C@H](OC(=O)CCCCC[P+](c2ccccc2)(c2ccccc2)c2ccccc2)O[C@@H]2O[C@@]3(C)CC[C@H]4[C@H](C)CC[C@@H]1[C@@]24OO3.[Br-] | 11.9 | 5.3 | 7.1 | 2.7 | 13.9 | 9.1 |  |  |  |  | Ratio IC50 (A549 [11]): 4.8 |
| C[C@H]1[C@H](OC(=O)CCC[P+](c2ccccc2)(c2ccccc2)c2ccccc2)O[C@@H]2O[C@@]3(C)CC[C@H]4[C@H](C)CC[C@@H]1[C@@]24OO3 | 34.2 | 35.7 | 15.8 | 12.2 | 115 | 116 |  |  |  |  |  |
| C[C@H]1[C@H](OC(=O)CC[P+](c2ccccc2)(c2ccccc2)c2ccccc2)O[C@@H]2O[C@@]3(C)CC[C@H]4[C@H](C)CC[C@@H]1[C@@]24OO3 | 62.7 | 1.2 | 35.7 | 26.5 | 78.8 | 66.5 |  |  |  |  |  |
| C[C@H]1[C@H](OC(=O)CCC(=O)O)O[C@@H]2O[C@@]3(C)CC[C@H]4[C@H](C)CC[C@@H]1[C@@]24OO3 [ARTESUNATE] | 72.3 | 47 | 67.3 | 5.4 | 75.7 | 86.1 |  |  |  |  |  |
| C[C@H]1[C@H](OC(=O)CCC(=O)OCCCCC[P+](c2ccccc2)(c2ccccc2)c2ccccc2)O[C@@H]2O[C@@]3(C)CC[C@H]4[C@H](C)CC[C@@H]1[C@@]24OO3 | 13 | 16.1 | 6.6 | 5.6 | 29.3 | 27.5 |  |  |  |  |  |
| O=C(O)CCCC[P+](c1ccccc1)(c1ccccc1)c1ccccc1.[Br-] |  |  |  |  |  |  | 5.81 | 0.625 | 1.55 | 92 |  |
| C[C@H]1[C@H](OC(=O)CCCC[P+](c2ccccc2)(c2ccccc2)c2ccccc2)O[C@@H]2O[C@@]3(C)CC[C@H]4[C@H](C)CC[C@@H]1[C@@]24OO3.[Br-] | 18 | 5.2 | 3 | 4.7 | 41.9 | 24.5 | 10.5 | 4.04 | 0.078 | 85.4 | Ratio IC50 [12]: 8.2; Activity (OVCAR-3 [13]): Dose-dependent effect; Activity (OVCAR-3 [14]): Dose-dependent effect; Activity (OVCAR-3 [15]): 17.2%; Activity (OVCAR-3 [16]): 55.4%; Activity (OVCAR-3 [17]): 95.5%; Activity (OVCAR-3 [18]): inactive; Activity (OVCAR-3 [19]): inactive; Activity (OVCAR-3 [20]): Dose-dependent effect; Ratio IC50 (A549 [11]): 4.8; Ratio IC50 (OVCAR-3 [21]): 4.4; Activity (OVCAR-3 [22]): Active; Activity (OVCAR-3 [23]): inactive; Activity (OVCAR-3 [24]): inactive |
